# Source: patent publication US20030055007A1, “Antimicrobial agents” (priority 2001, published 2003)
# Where two headings read alike, the source gives them in different places.
# Assays:
# [1] = system: AIDS virus (HIV-1, HIV-2); assay: Complete inhibitory activity against AIDS virus, MT-4 cells, 12-well microplate, 3- and 6-day culture; type: cell-based; conditions: for lowest sample concentration (circle-marked well) at which AIDS virus growth was inhibited completely (100%): MT-4 cells, 2-fold dilutions from 1000 μg/ml
# [2] = system: Influenza virus B/Hokkaidou/1/97; assay: microbe, parasite or virus in culture; type: cell-based; conditions: for MIC: unidentified influenza virus, read-out: Minimum inhibitory concentration (MIC)
# [3] = system: S. aureus; assay: Antibacterial activity test (2), dilution on agar culture medium; type: cell-based; conditions: 30° C., 17 hours, 1:40 = 2 mg/ml, <40-fold = no complete inhibition at 1:40
# Procedure: Aqueous solutions of each specimen (powders) at a concentration of 8% was diluted 1:40 as the specimen stock solution for MIC measurement. The stock solution diluted at a graduation ratio of 1:40 to 1:400 and the stock solution were added to the agar culture medium on which 6 test […] were inoculated, and incubated at 30° C. for 17 hours. Growth inhibition bands were examined on the agar culture medium. The specimen stock solution was prepared by diluting 25 ml of 8% solution with 1000 cc of distilled water(1:40 dilution), which is converted into the amount per 2 mg/ml by solid content.
# However, the remaining samples that were indicative of “<40-fold (lower than the 1:40 dilution)” were proven to have a certain degree of inhibitory effects. They are expected to show the complete inhibitory effects against the bacterial growth, by increasing the concentration level. As a consequence, the samples, 5, 6, 11-14 were recognized to have sufficient useful antibacterial activity.
# [4] = system: B. subtilis; assay: as above; type: cell-based; conditions: 30° C., 17 hours, 1:40 = 2 mg/ml, <40-fold = no complete inhibition at 1:40
# [5] = system: MT-4 cells; assay: Cell damage caused by the sample in the AIDS virus microplate test; conditions: for cell damage / cytotoxicity (in words): AIDS virus test
# [6] = system: P. aerginos; assay: Antibacterial activity test (2), dilution on agar culture medium; type: cell-based; conditions: 30° C., 17 hours, 1:40 = 2 mg/ml, <40-fold = no complete inhibition at 1:40
# [7] = system: K. pneumoniae; assay: as above; type: cell-based; conditions: 30° C., 17 hours, 1:40 = 2 mg/ml, <40-fold = no complete inhibition at 1:40
# [8] = system: S. Enteritidis; assay: as above; type: cell-based; conditions: 30° C., 17 hours, 1:40 = 2 mg/ml, <40-fold = no complete inhibition at 1:40
# [9] = system: Influenza virus A/Hokkaidou/1/97 (H3N2); assay: organism not typed; type: cell-based; conditions: for MIC: read-out: Minimum inhibitory concentration (MIC)
# [10] = system: E. coli O157; type: cell-based; conditions: 30° C., 17 hours, 1:40 = 2 mg/ml, <40-fold = no complete inhibition at 1:40
# [11] = system: Influenza virus A/Hokkaidou/1/96 (H1N1); assay: organism not typed; type: cell-based; conditions: for MIC: read-out: Minimum inhibitory concentration (MIC)
# [12] = system: influenza virus (H1N1, H3N2, Type B); type: cell-based
# [13] = system: MDCK cells
# [14] = system: influenza virus; conditions: in vivo, po
# [15] = oral; cited from earlier work
# [16] = system: MT-4 cells
# [17] = H3N2, stock 10 mg/ml, read when virus multiplied to 100 TCID (3-4 days)
# [18] = H1N1, stock 10 mg/ml, read when virus multiplied to 100 TCID (3-4 days)
# [19] = H1N1, liquid samples, stock 10 μl/ml guaiacol, 2 μl/ml 2,6-dimethoxyphenol
molecule,measurement,setting,value
"COc1cc(C=O)cc(OC)c1O [sample 13, Syringaldehyde]",lowest sample concentration (circle-marked well) at which AIDS virus growth was inhibited completely (100%),[1]; 6-day culture,3.91 µg/mL
same,MIC,[2],3800 µg/mL
same,dilution of 8% solution giving complete growth inhibition,[3],<40-fold
same,dilution of 8% solution giving complete growth inhibition,[4],<40-fold
same,cell damage / cytotoxicity (in words),[5],severe cell damage
same,dilution of 8% solution giving complete growth inhibition,[6],<40-fold
same,dilution of 8% solution giving complete growth inhibition,[7],<40-fold
same,dilution of 8% solution giving complete growth inhibition,[8],<40 fold
same,MIC,[9],1900 µg/mL
same,dilution of 8% solution giving complete growth inhibition,[10],<40-fold
same,MIC,[11],3800 µg/mL
"COc1cc(O)cc(OC)c1 [sample 4, 3,5-dimethoxyphenol]",lowest sample concentration (circle-marked well) at which AIDS virus growth was inhibited completely (100%),[1]; 3-day culture,◯ (125) μg/ml
same,lowest sample concentration (circle-marked well) at which AIDS virus growth was inhibited completely (100%),[1]; 6-day culture,◯ (125) μg/ml
same,lowest sample concentration (circle-marked well) at which AIDS virus growth was inhibited completely (100%),"[1]; 6-day culture, listed as 3,5-dimethoxyphenol",125 µg/mL
same,MIC,"[2]; Type B, stock 10 mg/ml, read when virus multiplied to 100 TCID (3-4 days)",3800 µg/mL
same,well up to which cell damage was observed,"[5]; 6-day incubation, well number",3 (250)
same,"cell damage when 3,4-dimethoxyphenol was added to the sample","[5]; ratio of 1:1, anti-viral effect not reduced",only in the first well
same,MIC,[9]; [17],1900 µg/mL
same,MIC,[11]; [18],5000 µg/mL
"COc1cc(S(=O)(=O)[O-])ccc1O.COc1cc(S(=O)(=O)[O-])ccc1O.O.[K+].[K+] [guaiacol-4-sulfonate potassium salt 0.5-hydrate, reference compound]",anti-AIDS virus activity (in words),[1]; cell-level test,not to possess effective anti-AIDS virus activity
same,cell damage / cytotoxicity (in words),[5],caused cell damage
"COc1cc(C(O)C(CO)Oc2ccccc2OC)ccc1OCc1ccccc1 (stereo not drawn) [sample 12, 4-benzyloxyguaiacylglycerol-β-guaiacylether]",viral (inhibitory) activity against AIDS virus,[1]; 6th day of culture,125 μl/ml
same,Minimum inhibitory concentration (MIC),[2],2.5 mg/mL
same,dilution of 8% solution giving complete growth inhibition,[3],<40-fold
same,dilution of 8% solution giving complete growth inhibition,[4],<40-fold
same,dilution of 8% solution giving complete growth inhibition,[6],<40-fold
same,dilution of 8% solution giving complete growth inhibition,[7],<40-fold
same,dilution of 8% solution giving complete growth inhibition,[8],<40-fold
same,Minimum inhibitory concentration (MIC),[9]; [17],2.5 mg/mL
same,dilution of 8% solution giving complete growth inhibition,[10],<40-fold
same,Minimum inhibitory concentration (MIC),[11]; [18],8.0 mg/mL
"COc1cccc(OC)c1O [sample 3, 2,6-dimethoxyphenol]",lowest sample concentration (circle-marked well) at which AIDS virus growth was inhibited completely (100%),[1]; 3-day culture,◯ (31.3) μg/ml
same,lowest sample concentration (circle-marked well) at which AIDS virus growth was inhibited completely (100%),[1]; 6-day culture,◯ (31.3) μg/ml
same,effect against influenza virus (in words),[12],not effective
same,Minimum inhibitory concentration (MIC),[11]; [19],> 1.0 μl/ml
Lignosulfonic acid sodium salt acetate [sample 6],cell damage,[13],not seen
same,side effects,[14],not seen
"COc1ccccc1O [sample 1, Guaiacol]",lowest sample concentration (circle-marked well) at which AIDS virus growth was inhibited completely (100%),[1]; 3-day culture,◯ (31.3) μg/ml
same,lowest sample concentration (circle-marked well) at which AIDS virus growth was inhibited completely (100%),"[1]; 3-day culture, listed as guaiacol",31.3 µg/mL
same,lowest sample concentration (circle-marked well) at which AIDS virus growth was inhibited completely (100%),[1]; 6-day culture,◯ (125) μg/ml
same,lowest sample concentration (circle-marked well) at which AIDS virus growth was inhibited completely (100%),"[1]; 6-day culture, listed as guaiacol",125 µg/mL
same,Minimum inhibitory concentration (MIC),"[2]; Type B, liquid samples, stock 10 μl/ml guaiacol, 2 μl/ml 2,6-dimethoxyphenol",3.8 μl/ml
same,concentration up to which cell damage was observed,[5]; 3-day incubation,250 µg/mL
same,concentration up to which cell damage was observed,[5]; 6-day incubation,250 µg/mL
same,Minimum inhibitory concentration (MIC),"[9]; H3N2, liquid samples, stock 10 μl/ml guaiacol, 2 μl/ml 2,6-dimethoxyphenol",1.9 μl/ml
same,toxicity level in a human (ORL-HMN),[15],43 mg/kg
same,Minimum inhibitory concentration (MIC),[11]; [19],3.8 μl/ml
"COc1cc(C(O)C(CO)Oc2c(OC)cccc2OC)cc(OC)c1O (stereo not drawn) [SOS, syringylglycerol-β-syringyl ether, reference compound]",viral (inhibitory) activity against AIDS virus,[1]; 3rd day of culture,15.6 μl/ml
same,cell damage,[16],31.3 μl/ml
Lignosulfonic acid sodium salt [sample 5],cell damage,[13],not seen
